Test results: patent publication US12285503B2, “Methods and reagents for tumor targeting with greater efficacy and less toxicity” (CORNELL UNIVERSITY, priority 2017, dated 2025)

Tests used:
[1] = target: T1, PSMA (Homo sapiens, UniProt Q04609); conditions: cited from earlier work
T1 construct: when treating prostate cancer patients with PSMA-617-Ac^225 has been reported; host or cells: prostate cancer patients (Kratochwil et al., J. Nucl. Med. 2017)

[2] = limit to the kidney and salivary glands; cited from earlier work
[3] = target: T1, PSMA; assay: Normal tissue bio-distribution / organ radioactive dose of PSMA-targeting agents in patients; format: in vivo
Excerpt: While the two different classes of agents both bind to their target (e.g., PSMA, SSTR-2, CD20, etc)-expressing tumor cells, the normal tissues that get targeted differs between classes of agents. As an example, PSMA is expressed not only by prostate cancer cells but also by the normal parotid and other salivary glands, lacrimal glands, kidney and small bowel (See FIGS. 4-7). […] With both types of agents, the tumor sites are targeted, but the normal tissues that are targeted are different and virtually mutually exclusive.

[4] = tested on: LNCaP cells; assay: Internalization assay, LNCaP cells; format: cell-based; conditions: 1 hour at 37° C.
Experimental: (§1) Internalization assay. LNCaP and CWR22Rv1 cells were trypsinized and aliquoted into tubes at 1×10^6 cells per tube. Cells were washed once with RPMI (no FBS). ^177Lu-J591 (150,000 CPM) in […] RPMI (no FBS) per tube and/or ^177Lu-PSMA-617 (110,000 CPM) was added in […] RPMI (no FBS) per tube. The samples were incubated for 1 hour at 37° C., with the cells re-suspended every 15 minutes. After incubation, the cells were washed twice with 0.1% BSA/PBS to remove unbound/un-internalized binding agents. Samples were counted.

[5] = tested on: CWR22Rv1 cells; assay: Internalization assay, CWR22Rv1 cells; format: cell-based; conditions: 1 hour at 37° C.
Experimental: as §1

[6] = target: T1, PSMA; assay: PSA declines as indication of anti-tumor activity in patients; format: in vivo
Excerpt: J591-Lu^177 begins to induce PSA declines, as an indication of anti-tumor activity, at an administered ^177Lu dose of ≤30 mCi/m^2 given twice at a 2 week interval. As the dose is increased to 140, 160 and 180 mCi [total], the magnitude of the PSA/anti-tumor response gets progressively greater.
PSMA-617/ligand-Lu^177 begins to induce PSA declines at an administered cumulative ^177Lu dose of 300 mCi (11.1 Gbq) given in a 2-dose regimen at a 2 week interval (150 mCi×2). As the dose is increased to 2-dose totals of 400-500 mCi (14.8-18.5 GBq), the magnitude of the PSA/anti-tumor response gets progressively greater.

T1 sequence (Q04609 whole entry): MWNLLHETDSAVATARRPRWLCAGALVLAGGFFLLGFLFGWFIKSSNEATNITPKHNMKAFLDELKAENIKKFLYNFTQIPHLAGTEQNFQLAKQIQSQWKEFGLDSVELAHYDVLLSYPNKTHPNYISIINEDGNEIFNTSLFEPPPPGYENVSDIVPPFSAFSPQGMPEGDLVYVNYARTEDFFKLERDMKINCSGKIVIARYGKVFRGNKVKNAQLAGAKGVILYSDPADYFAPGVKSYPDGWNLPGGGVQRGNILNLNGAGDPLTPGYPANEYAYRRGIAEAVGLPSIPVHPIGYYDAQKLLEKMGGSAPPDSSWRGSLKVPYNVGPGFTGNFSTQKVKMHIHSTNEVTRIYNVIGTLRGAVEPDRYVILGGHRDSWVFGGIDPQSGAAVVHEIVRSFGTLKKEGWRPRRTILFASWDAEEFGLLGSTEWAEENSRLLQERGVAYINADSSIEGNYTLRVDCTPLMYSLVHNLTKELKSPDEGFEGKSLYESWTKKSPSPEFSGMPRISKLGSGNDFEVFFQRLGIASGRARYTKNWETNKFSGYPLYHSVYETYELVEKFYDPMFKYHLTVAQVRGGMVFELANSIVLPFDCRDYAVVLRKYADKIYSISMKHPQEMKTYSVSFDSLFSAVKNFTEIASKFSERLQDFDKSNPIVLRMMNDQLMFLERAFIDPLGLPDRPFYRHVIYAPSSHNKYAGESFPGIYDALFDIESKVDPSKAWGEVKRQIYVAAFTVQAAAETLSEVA

**Q.** For O=C([O-])CC[C@H](NC(=O)N[C@@H](CCCCNC(=O)[C@H](Cc1ccc2ccccc2c1)NC(=O)C1CCC(CNC(=O)CN2CCN(CC(=O)[O-])CCN(CC(=O)[O-])CCN(CC(=O)[O-])CC2)CC1)C(=O)[O-])C(=O)[O-].[225Ac].[H+].[H+].[H+] (stereo partly shown) [PSMA-617-Ac^225], which tolerable dose ([1]; human, in vivo) is on record?
**A.** 100 Kbq/kg

**Q.** What about the “treatment activity above which severe xerostomia becomes the dose-limiting toxicity” value ([1]; human, in vivo) of the same molecule?
**A.** exceeded 100 kBq/kg per cycle

**Q.** And the anti-tumor response ([1]; treatment activity 50 kBq/kg, patients with high tumor burden)?
**A.** insufficient anti-tumor response

**Q.** What about the toxicity ([1]; treatment activity 50 kBq/kg) of the same molecule?
**A.** without toxicity

**Q.** What does the source list for O=C([O-])CN1CCN(CC(=O)[O-])CCN(CC(=O)NCC2CCC(C(=O)N[C@@H](Cc3ccc4ccccc4c3)C(=O)NCCCC[C@H](NC(=O)N[C@@H](CCC(=O)O)C(=O)O)C(=O)O)CC2)CCN(CC(=O)[O-])CC1.[177Lu+3] (stereo partly shown) [PSMA-617-^177Lu]?
**A.** maximum safe cumulative dose [2]: 27-30 Gbq; dose to the bone marrow / thrombocytopenia [3]: does not cause thrombocytopenia; 177Lu internalization [4]: internalized to a similar degree; 177Lu internalization [5]: internalized to a similar degree; administered cumulative 177Lu dose at which PSA declines begin ([6]; 2-dose regimen at a 2 week interval): 11.1 Gbq; administered cumulative 177Lu dose at which PSA declines begin ([6]; 2-dose regimen at a 2 week interval (150 mCi×2)): 300 mCi
